This note sets out measurements from article PMC3315319 (Nucleic Acids Research, 2011).

The structures appear in SMILES notation.

In the assay the target is T1, gp16 (eGFP-gp16) (Bacillus phage phi29, UniProt P11014).
T1 sequence (P11014 1-332): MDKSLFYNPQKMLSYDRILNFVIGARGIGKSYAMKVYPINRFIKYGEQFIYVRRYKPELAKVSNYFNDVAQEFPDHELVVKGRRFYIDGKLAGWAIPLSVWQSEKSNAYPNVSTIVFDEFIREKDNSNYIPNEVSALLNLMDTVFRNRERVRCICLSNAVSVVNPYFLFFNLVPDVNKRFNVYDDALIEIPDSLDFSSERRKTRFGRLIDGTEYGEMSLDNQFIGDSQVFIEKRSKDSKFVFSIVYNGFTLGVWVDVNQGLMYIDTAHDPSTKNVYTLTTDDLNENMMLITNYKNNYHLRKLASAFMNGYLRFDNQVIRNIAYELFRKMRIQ
The experiment in a line: EMSA, release of dsDNA from gp16/dsDNA/γ-S-ATP complex. The format is binding. Conditions: γ-S-ATP present, Cy3-dsDNA; indirect read-out of nucleotide action. (In general: In EMSA bound probe runs differently from free probe, usually more slowly.)

Take `Nc1ncnc2c1ncn2[C@@H]1O[C@H](COP(=O)(O)OP(=O)(O)O)[C@@H](O)[C@H]1O` [ADP]: the “EMSA, release of dsDNA from gp16/dsDNA/γ-S-ATP complex” value was “ADP also stimulated the release of gp16 from the gp16/dsDNA complex”.
